Data from patent US20240317708A1, “INHIBITORS OF TRANSGLUTAMINASES” (ZEDIRA GMBH, priority 2021, published 2024).

Experiments:
[1] = target: T1, recombinant human transglutaminase 2 (Homo sapiens, UniProt P21980); assay: Transglutaminase assay (dansylcadaverine incorporation into dimethylcasein, DCC-assay); type: biochemical; conditions: recombinant human TG2 10 nM, dansylcadaverine/dimethylcasein, 37° C.
T1 construct: purchased Zedira T022
T1 sequence (P21980 1-687): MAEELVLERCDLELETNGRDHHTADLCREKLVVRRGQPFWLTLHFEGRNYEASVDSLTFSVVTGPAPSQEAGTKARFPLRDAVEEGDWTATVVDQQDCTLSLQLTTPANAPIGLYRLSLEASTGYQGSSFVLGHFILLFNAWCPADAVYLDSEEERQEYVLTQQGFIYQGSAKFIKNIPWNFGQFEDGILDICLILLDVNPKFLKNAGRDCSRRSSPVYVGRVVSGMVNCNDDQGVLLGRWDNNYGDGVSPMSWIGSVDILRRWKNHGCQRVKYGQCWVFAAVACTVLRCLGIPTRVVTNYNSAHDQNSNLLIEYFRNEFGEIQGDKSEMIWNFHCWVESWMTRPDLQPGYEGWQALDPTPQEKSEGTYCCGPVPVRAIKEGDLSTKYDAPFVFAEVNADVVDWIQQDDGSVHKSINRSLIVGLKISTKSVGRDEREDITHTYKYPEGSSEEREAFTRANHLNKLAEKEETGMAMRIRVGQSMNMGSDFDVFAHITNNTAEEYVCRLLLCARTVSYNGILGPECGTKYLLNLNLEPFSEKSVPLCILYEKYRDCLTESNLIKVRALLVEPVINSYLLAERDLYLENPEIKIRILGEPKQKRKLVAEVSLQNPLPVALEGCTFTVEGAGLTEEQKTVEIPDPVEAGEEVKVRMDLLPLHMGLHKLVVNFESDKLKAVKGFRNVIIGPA
Method in brief: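 IC50 derived from fluorescence slope between 20 and 30 min (λex 330 nm, λem 500 nm, 37 °C), expressed relative to a 2% DMSO control. Reaction: 10 nM recombinant human TG2, 4 μM dimethylcasein, 16.7 μM dansylcadaverine, 10 mM CaCl2 and glutathione, pH 8.0.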

[2] = Log D shake flask method (octanol / PBS pH 7.4, HPLC); type: physicochemical; conditions: octanol/phosphate-buffered saline (PBS); octanol / PBS pH 7.4, shake flask
Procedure: In order to classify the inventive compounds according to their lipophilicity, Log D values (distribution coefficient) were determined by means of the well-established shake flask method, measuring the partition of a compound between an octanol and phosphate-buffered saline (PBS, pH 7.4) by HPLC.

[3] = Caco-2 permeability assay (CacoReady kit); type: in vitro ADME; conditions: human
Method in brief: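 Compounds are tested on pre-formed Caco-2 barriers supplied as a ready-to-use kit, following the kit protocol, and the Papp value is derived to estimate intestinal absorption.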

SMILES | IC50 [1] | logD [2] | Papp [3]
COC(=O)/C=C/CC[C@H](NC(=O)c1oc2ccccc2c1C)C(=O)Nc1cccn(CC23CC4CC(CC(C4)C2)C3)c1=O [III-79, (S,E)-methyl 7-(1-(1-adamantylmethyl)-2-oxo-1,2-dihydropyridin-3-ylamino)-6-(3-methylbenzofuran-2-carboxamido)-7-oxohept-2-enoate] | 250 to 1500 nM | 3 to 5 | 1 to 10 ×10⁻⁶ cm/s
COC(=O)/C=C/CC[C@H](NC(=O)c1coc2ccccc12)C(=O)Nc1cccn(CC(=O)NC2C3CC4CC(C3)CC2C4)c1=O (stereo partly drawn) [III-106, (S,E)-methyl 6-(benzofuran-3-carboxamido)-7-(1-(2-(2-adamantylamino)-2-oxoethyl)-2-oxo-1,2-dihydropyridin-3-ylamino)-7-oxohept-2-enoate] | 25 to 250 nM | 3 to 5 | 1 to 10 ×10⁻⁶ cm/s
COC(=O)/C=C/CC[C@H](NC(=O)c1cncn1C)C(=O)Nc1cccn(CC23CC4CC(CC(C4)C2)C3)c1=O [III-78, (S,E)-methyl 7-(1-(1-adamantylmethyl)-2-oxo-1,2-dihydropyridin-3-ylamino)-6-(1-methyl-1H-imidazole-5-carboxamido)-7-oxohept-2-enoate] | 250 to 1500 nM | 3 to 5 | < 1 ×10⁻⁶ cm/s
COC(=O)/C=C/CC[C@H](NC(=O)c1oc2ccccc2c1C)C(=O)Nc1cccn(CC(=O)NC(C)C23CC4CC(CC(C4)C2)C3)c1=O (stereo partly drawn) [III-57, (S,E)-methyl 7-(1-(2-(1-(1-adamantyl)ethanamino)-2-oxoethyl)-2-oxo-1,2-dihydropyridin-3-ylamino)-6-(3-methylbenzofuran-2-carboxamido)-7-oxohept-2-enoate] | 25 to 250 nM | 3 to 5 | 1 to 10 ×10⁻⁶ cm/s
COC(=O)/C=C/CC[C@H](NC(=O)c1oc2ccccc2c1C)C(=O)Nc1cccn(CC23CC4CC(CC(Br)(C4)C2)C3)c1=O [III-81, (6S, E)-methyl 7-(1-((3-bromo-1-adamantyl)methyl)-2-oxo-1,2-dihydropyridin-3-ylamino)-6-(3-methylbenzofuran-2-carboxamido)-7-oxohept-2-enoate] | 250 to 1500 nM | 3 to 5 | 1 to 10 ×10⁻⁶ cm/s
COC(=O)/C=C/CC[C@H](NC(=O)c1snnc1C1CC1)C(=O)Nc1cccn(CC(=O)NC23CC(C2)C3)c1=O [III-172, (S,E)-methyl 7-(1-(2-(bicyclo[1.1.1]pentan-1-ylamino)-2-oxoethyl)-2-oxo-1,2-dihydropyridin-3-ylamino)-6-(4-cyclopropyl-1,2,3-thiadiazole-5-carboxamido)-7-oxohept-2-enoate] | 25 to 250 nM | < 1 | < 1 ×10⁻⁶ cm/s
COC(=O)/C=C/CC[C@H](NC(=O)c1cncnc1C)C(=O)Nc1cccn(CC(=O)NC2C3CC4CC2CC(C(=O)O)(C4)C3)c1=O (stereo partly drawn) [III-136, (S,E)-methyl 7-(1-(2-(5-carboxy-2-aminoadamantane)-2-oxoethyl)-2-oxo-1,2-dihydropyridin-3-ylamino)-6-(4-methylpyrimidine-5-carboxamido)-7-oxohept-2-enoate] | 250 to 1500 nM | < 1 | < 1 ×10⁻⁶ cm/s
COC(=O)/C=C/CC[C@H](NC(=O)c1oc2ccccc2c1C)C(=O)Nc1cccn(CC(=O)NC[C@@H]2CC[C@H]3C[C@@H]2C3(C)C)c1=O [III-71, (S,E)-methyl 7-(1-(2-(((1S,2R,5S)-6,6-dimethylbicyclo[3.1.1]heptan-2-yl)methylamino)-2-oxoethyl)-2-oxo-1,2-dihydropyridin-3-ylamino)-6-(3-methylbenzofuran-2-carboxamido)-7-oxohept-2-enoate] | 25 to 250 nM | 3 to 5 | 1 to 10 ×10⁻⁶ cm/s
COC(=O)/C=C/CC[C@H](NC(=O)c1c[nH]c(C(N)=O)c1)C(=O)Nc1cccn(CC(=O)NC23CC(C2)C3)c1=O [III-163, (S,E)-methyl 7-(1-(2-(bicyclo[1.1.1]pentan-1-ylamino)-2-oxoethyl)-2-oxo-1,2-dihydropyridin-3-ylamino)-6-(5-carbamoyl-1H-pyrrole-3-carboxamido)-7-oxohept-2-enoate] | 250 to 1500 nM | < 1 | < 1 ×10⁻⁶ cm/s
COC(=O)/C=C/CC[C@H](NC(=O)c1noc(C)n1)C(=O)Nc1cccn(CC(=O)NC23CC(C2)C3)c1=O [III-168, (S,E)-methyl 7-(1-(2-(bicyclo[1.1.1]pentan-1-ylamino)-2-oxoethyl)-2-oxo-1,2-dihydropyridin-3-ylamino)-6-(5-methyl-1,2,4-oxadiazole-3-carboxamido)-7-oxohept-2-enoate] | 250 to 1500 nM | < 1 | < 1 ×10⁻⁶ cm/s
Cc1c(C(=O)N[C@@H](CC/C=C/C(=O)N(C)C)C(=O)Nc2cccn(CC(=O)NC34CC5CC(C)(CC(C)(C5)C3)C4)c2=O)oc2ccccc12 [III-77, (S,E)-N^7-(1-(2-(3,5-dimethyladamantan-1-amino)-2-oxoethyl)-2-oxo-1,2-dihydropyridin-3-yl)-N^1,N^1-dimethyl-6-(3-methylbenzofuran-2-carboxamido)hept-2-enediamide] | 25 to 250 nM | 3 to 5 | 1 to 10 ×10⁻⁶ cm/s
COC(=O)/C=C/CC[C@H](NC(=O)c1oc2ccccc2c1C)C(=O)Nc1cccn(CC2C3CC4CC(C3)CC2C4)c1=O (stereo partly drawn) [III-82, (S,E)-methyl 7-(1-(2-adamantylmethyl)-2-oxo-1,2-dihydropyridin-3-ylamino)-6-(3-methylbenzofuran-2-carboxamido)-7-oxohept-2-enoate] | 250 to 1500 nM | 3 to 5 | 1 to 10 ×10⁻⁶ cm/s

Next, values leading:

IC50 [1] | logD [2] | Papp [3] | SMILES
< 25 nM | 3 to 5 | < 1 ×10⁻⁶ cm/s | COC(=O)/C=C/CC[C@H](NC(=O)c1cncn1C)C(=O)Nc1cccn(CC(=O)N[C@H]2C[C@H]3CC[C@]2(C)C3(C)C)c1=O [III-60, (S,E)-methyl 6-(1-methyl-1H-imidazole-5-carboxamido)-7-oxo-7-(2-oxo-1-(2-oxo-2-((1R,2S,4R)-1,7,7-trimethylbicyclo[2.2.1]heptan-2-ylamino)ethyl)-1,2-dihydropyridin-3-ylamino)hept-2-enoate]
< 25 nM | 3 to 5 | 1 to 10 ×10⁻⁶ cm/s | COC(=O)/C=C/CC[C@H](NC(=O)c1sc(C(F)(F)F)nc1C)C(=O)Nc1cccn(CC(=O)NC2C3CC4CC(C3)CC2C4)c1=O (stereo partly drawn) [III-14, (S,E)-methyl 7-(1-(2-(2-adamantylamino)-2-oxoethyl)-2-oxo-1,2-dihydropyridin-3-ylamino)-6-(4-methyl-2-(trifluoromethyl)thiazole-5-carboxamido)-7-oxohept-2-enoate]
< 25 nM | 3 to 5 | 1 to 10 ×10⁻⁶ cm/s | COC(=O)/C=C/CC[C@H](NC(=O)c1cc(Cl)sc1Cl)C(=O)Nc1cccn(CC(=O)N[C@@H]2C[C@H]3CC[C@@H]2C3)c1=O [III-97, (S,E)-methyl 7-(1-(2-((1R,2R,4S)-bicyclo[2.2.1]heptan-2-ylamino)-2-oxoethyl)-2-oxo-1,2-dihydropyridin-3-ylamino)-6-(2,5-dichlorothiophene-3-carboxamido)-7-oxohept-2-enoate]
< 25 nM | 3 to 5 | 1 to 10 ×10⁻⁶ cm/s | COC(=O)/C=C/CC[C@H](NC(=O)c1oc2ccccc2c1Cl)C(=O)Nc1cccn(CC(=O)NC2C3CC4CC(C3)CC2C4)c1=O (stereo partly drawn) [III-3, (S,E)-methyl 6-(3-chlorobenzofuran-2-carboxamido)-7-(1-(2-(2-adamantylamino)-2-oxoethyl)-2-oxo-1,2-dihydropyridin-3-ylamino)-7-oxohept-2-enoate]
< 25 nM | 1 to 3 | < 1 ×10⁻⁶ cm/s | COC(=O)/C=C/CC[C@H](NC(=O)c1ccnn1C)C(=O)Nc1cccn(CC(=O)N[C@@H]2C[C@@H]3CC[C@H]2C3)c1=O [III-117, (S,E)-methyl 7-(1-(2-((1S,2R,4R)-bicyclo[2.2.1]heptan-2-ylamino)-2-oxoethyl)-2-oxo-1,2-dihydropyridin-3-ylamino)-6-(1-methyl-1H-pyrazole-5-carboxamido)-7-oxohept-2-enoate]
< 25 nM | 1 to 3 | 1 to 10 ×10⁻⁶ cm/s | COC(=O)/C=C/CC[C@H](NC(=O)c1oc2ccccc2c1C)C(=O)Nc1cccn(CC(=O)NC23CCC(CC2)C3)c1=O [III-64, (S,E)-methyl 7-(1-(2-(bicyclo[2.2.1]heptan-1-ylamino)-2-oxoethyl)-2-oxo-1,2-dihydropyridin-3-ylamino)-6-(3-methylbenzofuran-2-carboxamido)-7-oxohept-2-enoate]
